From patent US20080234340A1, “Synthesis and characterization of polymorph form II of 4-(2-(4,4-dimethyl-2-oxooxazolidin-3-YL)thiazol-4-YL)benzonitrile” (Wyeth, priority 2007, published 2008)

Assays:
[1] = target: T1, progesterone receptor (PR) (Homo sapiens, UniProt P06401); assay: PR whole cell binding in T47D cells with 3H-progesterone as labeled ligand; conditions: live, intact T47D cells; 3H-progesterone labeled ligand
T1 construct: in live, intact (whole) cells using the human breast carcinoma T47D cell line; endogenous in cells; host or cells: T47D human breast carcinoma cells
T1 sequence (P06401 1-933): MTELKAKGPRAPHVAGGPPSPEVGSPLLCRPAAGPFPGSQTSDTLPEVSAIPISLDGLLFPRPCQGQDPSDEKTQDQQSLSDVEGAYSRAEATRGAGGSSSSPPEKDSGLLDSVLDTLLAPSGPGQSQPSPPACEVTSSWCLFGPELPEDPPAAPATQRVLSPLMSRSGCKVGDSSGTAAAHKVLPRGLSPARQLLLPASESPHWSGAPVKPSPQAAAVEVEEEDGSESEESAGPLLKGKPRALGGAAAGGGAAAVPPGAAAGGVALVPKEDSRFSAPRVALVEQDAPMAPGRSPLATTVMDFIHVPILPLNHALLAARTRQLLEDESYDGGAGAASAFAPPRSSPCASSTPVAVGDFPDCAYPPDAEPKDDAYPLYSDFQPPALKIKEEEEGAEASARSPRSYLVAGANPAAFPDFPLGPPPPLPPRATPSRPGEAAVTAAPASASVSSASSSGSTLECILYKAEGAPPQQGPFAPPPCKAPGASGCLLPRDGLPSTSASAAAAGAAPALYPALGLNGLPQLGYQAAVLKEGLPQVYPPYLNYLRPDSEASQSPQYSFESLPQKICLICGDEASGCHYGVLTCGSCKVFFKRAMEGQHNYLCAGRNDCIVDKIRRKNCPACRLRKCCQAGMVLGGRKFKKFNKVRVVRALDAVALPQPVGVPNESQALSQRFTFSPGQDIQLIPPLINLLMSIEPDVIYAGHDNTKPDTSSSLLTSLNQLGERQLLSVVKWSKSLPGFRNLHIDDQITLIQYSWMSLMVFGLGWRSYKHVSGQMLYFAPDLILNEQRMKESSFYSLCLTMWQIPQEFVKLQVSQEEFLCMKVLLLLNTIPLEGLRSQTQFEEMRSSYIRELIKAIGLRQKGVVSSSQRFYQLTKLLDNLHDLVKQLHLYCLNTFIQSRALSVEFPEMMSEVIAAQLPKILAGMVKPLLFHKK
Text: (§1) The compound 4-(2-(4,4-dimethyl-2-oxooxazolidin-3-yl)thiazol-4-yl)benzonitrile has shown activity for modulating PR activity in assays to identify progestins or antiprogestins by (a) determining effect on alkaline phosphatase activity in T47D cells or (b) evaluating the progesterone receptor (PR) binding activity in live, intact (whole) cells using the human breast carcinoma T47D cell line and ^3H-progesterone as the labeled ligand (data presented in Table below).

[2] = target: T1, progesterone receptor (PR); assay: T47D alkaline phosphatase activity assay to identify progestins or antiprogestins; assay type: cell-based; conditions: T47D cells
Text: as §1

[3] = Solubility in solvent at room temperature, centrifuged after 24 hours, supernatant assayed; assay type: physicochemical
Procedure: In another embodiment, the solvent is 2% Tween® 80 reagent in water, wherein Tween® 80 is a polyoxyethylene (20) sorbitan monooleate. One of skill in the art would readily be able to measure the solubility of Form II using techniques known in the art. Typically, the solubility was measured by adding Form II to a solvent at room temperature, centrifuging the solution after 24 hours, and assaying the supernatant. This increased solubility is observed when Form II is immersed in water.
In this example, the solubility of polymorph Form II of 4-(2-(4,4-dimethyl-2-oxooxazolidin-3-yl)thiazol-4-yl)benzonitrile in water is measured.

[4] = Hygroscopicity (ability to absorb water/moisture from the air); assay type: physicochemical; conditions: normal, atmospheric conditions
Text: One of skill in the art would readily be able to measure the hygroscopicity of Form II using techniques known in the art including, without limitation, dynamic vapor sorption (DVS) at relative humidities ranging from 0 to 100%. This decreased hygroscopic property of Form II thereby permits longer shelf life and storage of the solid compound in comparison to Form I.

SMILES	Ki [1]	IC50 [2]	Solubility compared with Form I ([3]; solvents such as water and hydrophilic non-ionic surfactants (2% Tween 80 in water), room temperature, 24 hours)	Solubility in water relative to Form I ([3]; water)	Hygroscopicity compared with Form I [4]
CC1(C)COC(=O)N1c1nc(-c2ccc(C#N)cc2)cs1 [4-(2-(4,4-dimethyl-2-oxooxazolidin-3-yl)thiazol-4-yl)benzonitrile]	4.9 nM	3.1 nM	–	–	–
CC1(C)COC(=O)N1c1nc(-c2ccc(C#N)cc2)cs1 [Form II, 4-(2-(4,4-dimethyl-2-oxooxazolidin-3-yl)thiazol-4-yl)benzonitrile]	–	–	more soluble	4 times	less hygroscopic than Form I
